Reference: patent US20150231147A1, “METHODS FOR ACUTE AND LONG-TERM TREATMENT OF DRUG ADDICTION” (DemeRx, Inc., priority 2014, published 2015)

Assay: Plasma noribogaine glucuronide pharmacokinetics after noribogaine dosing, healthy volunteers
Format: in vivo, human
Details: for AUC0-216 / AUC0-∞ / Cmax / Tmax / t1/2: healthy male volunteers, mean (n = 6)
[1] = plasma glucuronide after single oral 30 mg noribogaine
[2] = plasma glucuronide after single oral 60 mg noribogaine

CC[C@H]1C[C@@H]2C[C@H]3c4[nH]c5ccc(OC6OC(C(=O)O)C(O)C(O)C6O)cc5c4CCN(C2)[C@@H]13 (some centres unmarked) [Noribogaine glucuronide]
Mean half-life of plasma noribogaine glucuronide (30 mg and 60 mg noribogaine dose groups): 21 to 23 h | proportion of noribogaine glucuronide Cmax and AUC relative to noribogaine (both dose groups (30 mg and 60 mg)): 3-4% | AUC0-216 [1]: 25.7 ng·h/mL | AUC0-∞ [1]: 25.8 ng·h/mL | Cmax [1]: 1.8 ng/mL | Tmax [1]: 3.0 h | t1/2 [1]: 20.6 h | AUC0-216 [2]: 65.0 ng·h/mL | AUC0-∞ [2]: 67.1 ng·h/mL | Cmax [2]: 4.1 ng/mL | Tmax [2]: 3.8 h | t1/2 [2]: 23.1 h | time of peak concentrations after noribogaine dosing (plasma glucuronide, 30 mg and 60 mg noribogaine dose groups): 3 to 4 h | time by which noribogaine glucuronide was detected in all subjects (plasma, 30 mg and 60 mg noribogaine dose groups): ≤ 0.75 h
